Assay results reported in patent US9102752B2, “Peptide vaccine for prevention and immunotherapy of dementia of the Alzheimer's type” (United Biomedical, Inc., priority 2013, dated 2015).

Assays:
[1] = tested on: anti-Aβ antibodies in sera from vaccinated baboons; experiment: Epitope mapping, 10-mer peptide-based ELISA with sera from vaccinated baboons; settings: peptide as plate coating
Method: Fine specificity analyses of anti-Aβ antibodies in immunized hosts or vaccines were determined by epitope mapping.
These nested peptides were used individually to coat microtiter wells as solid-phase immunoadsorbents for ELISA tests. The positive control ELISA plate was coated with Aβ1-28. They were tested for antibody binding with the sera from the four immunized baboons, from weeks 0, 10, 84 and 111. Baboon sera were serially diluted and assayed on plates coated with a 10-mer peptide at 5 ug/mL.

[2] = tested on: anti-Aβ antibodies in macaque antisera; experiment: Specificity analysis (10-mer peptide ELISA) of antisera from Cynomolgus macaques; format: binding
[3] = tested on: anti-Aβ antibodies in sera of vaccinated patients; experiment: Epitope mapping, competitive binding inhibition EIA with patient sera (10-mer peptides, IC50); parameters: species or system human; Epitope mapping, fine specificity analysis, serum of subject P210: unit not given here; settings: for Epitope mapping, fine specificity analysis, serum of subject P101: serum 16 wpi of vaccinated patient P101; for Epitope mapping, fine specificity analysis, serum of subject P102: serum 16 wpi of vaccinated patient P102; for Epitope mapping, fine specificity analysis, serum of subject P103: serum 16 wpi of vaccinated patient P103; for Epitope mapping, fine specificity analysis, serum of subject P104: serum 16 wpi of vaccinated patient P104; for Epitope mapping, fine specificity analysis, serum of subject P105: serum 16 wpi of vaccinated patient P105; for Epitope mapping, fine specificity analysis, serum of subject P106: serum 16 wpi of vaccinated patient P106; for Epitope mapping, fine specificity analysis, serum of subject P107: serum 16 wpi of vaccinated patient P107; for Epitope mapping, fine specificity analysis, serum of subject P108: serum 16 wpi of vaccinated patient P108; for Epitope mapping, fine specificity analysis, serum of subject P109: serum 16 wpi of vaccinated patient P109; for Epitope mapping, fine specificity analysis, serum of subject P201: serum 16 wpi of vaccinated patient P201; for Epitope mapping, fine specificity analysis, serum of subject P202: serum 16 wpi of vaccinated patient P202; for Epitope mapping, fine specificity analysis, serum of subject P203: serum 16 wpi of vaccinated patient P203; for Epitope mapping, fine specificity analysis, serum of subject P204: serum 16 wpi of vaccinated patient P204; for Epitope mapping, fine specificity analysis, serum of subject P205: serum 16 wpi of vaccinated patient P205; for Epitope mapping, fine specificity analysis, serum of subject P206: serum 16 wpi of vaccinated patient P206; for Epitope mapping, fine specificity analysis, serum of subject P207: serum 16 wpi of vaccinated patient P207; for Epitope mapping, fine specificity analysis, serum of subject P208: serum 16 wpi of vaccinated patient P208; for Epitope mapping, fine specificity analysis, serum of subject P209: serum 16 wpi of vaccinated patient P209; for Epitope mapping, fine specificity analysis, serum of subject P210: serum 16 wpi of vaccinated patient P210
[4] = antisera of macaques given UBI AD Vaccine 150 μg/dose, 9 WPI
[5] = antisera of macaques given UBI AD Vaccine 150 μg/dose, 15 WPI
[6] = antisera of macaques given UBI AD Vaccine 750 μg/dose, 9 WPI
[7] = antisera of macaques given UBI AD Vaccine 750 μg/dose, 15 WPI

9 (EEISEVKMDA) [Peptide 9]
ELISA Titer titers (Log10) ([1]; 0 weeks post immunization): 0.24 Log10
ELISA Titer titers (Log10) ([1]; 10 weeks post immunization): 0.30 Log10
ELISA Titer titers (Log10) ([1]; 84 weeks post immunization): 0.21 Log10
ELISA Titer titers (Log10) ([1]; 111 weeks post immunization): 0.22 Log10

17 (AEFRHDSGYE) [Peptide 17]
ELISA Titer titers (Log10) ([1]; 0 weeks post immunization): 0.25 Log10
ELISA Titer titers (Log10) ([1]; 10 weeks post immunization): 0.35 Log10
ELISA Titer titers (Log10) ([1]; 84 weeks post immunization): 0.25 Log10
ELISA Titer titers (Log10) ([1]; 111 weeks post immunization): 0.19 Log10

29 (HQKLVFFAED) [Peptide 29]
ELISA Titer titers (Log10) ([1]; 0 weeks post immunization): 0.18 Log10
ELISA Titer titers (Log10) ([1]; 10 weeks post immunization): 0.21 Log10
ELISA Titer titers (Log10) ([1]; 84 weeks post immunization): 0.13 Log10
ELISA Titer titers (Log10) ([1]; 111 weeks post immunization): 0.13 Log10

13 (EVKMDAEFRH) [Peptide 13]
ELISA Titer titers (Log10) ([1]; 0 weeks post immunization): 0.19 Log10
ELISA Titer titers (Log10) ([1]; 10 weeks post immunization): 0.23 Log10
ELISA Titer titers (Log10) ([1]; 84 weeks post immunization): 0.16 Log10
ELISA Titer titers (Log10) ([1]; 111 weeks post immunization): 0.14 Log10

23 (SGYEVHHQKL) [Peptide 23]
ELISA Titer titers (Log10) ([1]; 0 weeks post immunization): 0.13 Log10
ELISA Titer titers (Log10) ([1]; 10 weeks post immunization): 0.49 Log10
ELISA Titer titers (Log10) ([1]; 84 weeks post immunization): 0.51 Log10
ELISA Titer titers (Log10) ([1]; 111 weeks post immunization): 0.78 Log10

12 (SEVKMDAEFR) [Peptide 12]
ELISA Titer titers (Log10) ([1]; 0 weeks post immunization): 0.21 Log10
ELISA Titer titers (Log10) ([1]; 10 weeks post immunization): 0.24 Log10
ELISA Titer titers (Log10) ([1]; 84 weeks post immunization): 0.16 Log10
ELISA Titer titers (Log10) ([1]; 111 weeks post immunization): 0.13 Log10

15 (KMDAEFRHDS) [Peptide 15]
ELISA Titer titers (Log10) ([1]; 0 weeks post immunization): 0.26 Log10
ELISA Titer titers (Log10) ([1]; 10 weeks post immunization): 0.36 Log10
ELISA Titer titers (Log10) ([1]; 84 weeks post immunization): 0.41 Log10
ELISA Titer titers (Log10) ([1]; 111 weeks post immunization): 0.51 Log10

16 (MDAEFRHDSG) [Peptide 16]
ELISA Titer titers (Log10) ([1]; 0 weeks post immunization): 0.26 Log10
ELISA Titer titers (Log10) ([1]; 10 weeks post immunization): 0.32 Log10
ELISA Titer titers (Log10) ([1]; 84 weeks post immunization): 0.16 Log10
ELISA Titer titers (Log10) ([1]; 111 weeks post immunization): 0.17 Log10

24 (GYEVHHQKLV) [Peptide 24]
ELISA Titer titers (Log10) ([1]; 0 weeks post immunization): 0.13 Log10
ELISA Titer titers (Log10) ([1]; 10 weeks post immunization): 0.27 Log10
ELISA Titer titers (Log10) ([1]; 84 weeks post immunization): 0.19 Log10
ELISA Titer titers (Log10) ([1]; 111 weeks post immunization): 0.12 Log10

11 (ISEVKMDAEF) [Peptide 11]
ELISA Titer titers (Log10) ([1]; 0 weeks post immunization): 0.20 Log10
ELISA Titer titers (Log10) ([1]; 10 weeks post immunization): 0.20 Log10
ELISA Titer titers (Log10) ([1]; 84 weeks post immunization): 0.15 Log10
ELISA Titer titers (Log10) ([1]; 111 weeks post immunization): 0.13 Log10

25 (YEVHHQKLVF; PEPTIDE (1)..(10) Abeta 10-19 or APP 770(Y681-F690); listed as Homo sapiens) [compound 25]
Reactivity of antisera with peptide (specificity analysis ELISA) [2, 4]: 0.092
Reactivity of antisera with peptide (specificity analysis ELISA) [2, 5]: 0.069
Reactivity of antisera with peptide (specificity analysis ELISA) [2, 6]: 0.069
Reactivity of antisera with peptide (specificity analysis ELISA) [2, 7]: 0.058
Epitope mapping, fine specificity analysis, serum of subject P101 [3]: 0
Epitope mapping, fine specificity analysis, serum of subject P102 [3]: 0
Epitope mapping, fine specificity analysis, serum of subject P103 [3]: 0
Epitope mapping, fine specificity analysis, serum of subject P104 [3]: 0
Epitope mapping, fine specificity analysis, serum of subject P105 [3]: 0
Epitope mapping, fine specificity analysis, serum of subject P106 [3]: 0
Epitope mapping, fine specificity analysis, serum of subject P107 [3]: 0
Epitope mapping, fine specificity analysis, serum of subject P108 [3]: 0
Epitope mapping, fine specificity analysis, serum of subject P109 [3]: 0
Epitope mapping, fine specificity analysis, serum of subject P201 [3]: 0
Epitope mapping, fine specificity analysis, serum of subject P202 [3]: 0
Epitope mapping, fine specificity analysis, serum of subject P203 [3]: 0
Epitope mapping, fine specificity analysis, serum of subject P204 [3]: 0
Epitope mapping, fine specificity analysis, serum of subject P205 [3]: 0
Epitope mapping, fine specificity analysis, serum of subject P206 [3]: 0
Epitope mapping, fine specificity analysis, serum of subject P207 [3]: 10
Epitope mapping, fine specificity analysis, serum of subject P208 [3]: 0
Epitope mapping, fine specificity analysis, serum of subject P209 [3]: 0
Epitope mapping, fine specificity analysis, serum of subject P210 [3]: 0

20 (RHDSGYEVHH; PEPTIDE (1)..(10) Abeta 5-14 or APP 770(R676-H685); listed as Homo sapiens) [compound 20]
Reactivity of antisera with peptide (specificity analysis ELISA) [2, 4]: 0.296
Reactivity of antisera with peptide (specificity analysis ELISA) [2, 5]: 0.400
Reactivity of antisera with peptide (specificity analysis ELISA) [2, 6]: 0.453
Reactivity of antisera with peptide (specificity analysis ELISA) [2, 7]: 0.461
Epitope mapping, fine specificity analysis, serum of subject P101 [3]: 0
Epitope mapping, fine specificity analysis, serum of subject P102 [3]: 0
Epitope mapping, fine specificity analysis, serum of subject P103 [3]: 0
Epitope mapping, fine specificity analysis, serum of subject P104 [3]: 0
Epitope mapping, fine specificity analysis, serum of subject P105 [3]: 0
Epitope mapping, fine specificity analysis, serum of subject P106 [3]: 0
Epitope mapping, fine specificity analysis, serum of subject P107 [3]: 0
Epitope mapping, fine specificity analysis, serum of subject P108 [3]: 0
Epitope mapping, fine specificity analysis, serum of subject P109 [3]: 0
Epitope mapping, fine specificity analysis, serum of subject P201 [3]: 0
Epitope mapping, fine specificity analysis, serum of subject P202 [3]: 0
Epitope mapping, fine specificity analysis, serum of subject P203 [3]: 0
Epitope mapping, fine specificity analysis, serum of subject P204 [3]: 0
Epitope mapping, fine specificity analysis, serum of subject P205 [3]: 0
Epitope mapping, fine specificity analysis, serum of subject P206 [3]: 0
Epitope mapping, fine specificity analysis, serum of subject P207 [3]: 0
Epitope mapping, fine specificity analysis, serum of subject P208 [3]: 0
Epitope mapping, fine specificity analysis, serum of subject P209 [3]: 0
Epitope mapping, fine specificity analysis, serum of subject P210 [3]: 0

28 (HHQKLVFFAE; PEPTIDE (1)..(10) Abeta 13-22 or APP 770(H684-E693); listed as Homo sapiens) [compound 28]
Reactivity of antisera with peptide (specificity analysis ELISA) [2, 4]: 0.044
Reactivity of antisera with peptide (specificity analysis ELISA) [2, 5]: 0.052
Reactivity of antisera with peptide (specificity analysis ELISA) [2, 6]: 0.046
Reactivity of antisera with peptide (specificity analysis ELISA) [2, 7]: 0.032
Epitope mapping, fine specificity analysis, serum of subject P101 [3]: 0
Epitope mapping, fine specificity analysis, serum of subject P102 [3]: 0
Epitope mapping, fine specificity analysis, serum of subject P103 [3]: 0
Epitope mapping, fine specificity analysis, serum of subject P104 [3]: 0
Epitope mapping, fine specificity analysis, serum of subject P105 [3]: 0
Epitope mapping, fine specificity analysis, serum of subject P106 [3]: 0
Epitope mapping, fine specificity analysis, serum of subject P107 [3]: 0
Epitope mapping, fine specificity analysis, serum of subject P108 [3]: 0
Epitope mapping, fine specificity analysis, serum of subject P109 [3]: 0
Epitope mapping, fine specificity analysis, serum of subject P201 [3]: 0
Epitope mapping, fine specificity analysis, serum of subject P202 [3]: 0
Epitope mapping, fine specificity analysis, serum of subject P203 [3]: 0
Epitope mapping, fine specificity analysis, serum of subject P204 [3]: 0
Epitope mapping, fine specificity analysis, serum of subject P205 [3]: 0
Epitope mapping, fine specificity analysis, serum of subject P206 [3]: 0
Epitope mapping, fine specificity analysis, serum of subject P207 [3]: 0
Epitope mapping, fine specificity analysis, serum of subject P208 [3]: 0
Epitope mapping, fine specificity analysis, serum of subject P209 [3]: 0
Epitope mapping, fine specificity analysis, serum of subject P210 [3]: 0

15 (KMDAEFRHDS; PEPTIDE (1)..(10) Abeta -2-8 or APP 770(K670-S679); listed as Homo sapiens) [compound 15]
Reactivity of antisera with peptide (specificity analysis ELISA) [2, 4]: 0.065
Reactivity of antisera with peptide (specificity analysis ELISA) [2, 5]: 0.031
Reactivity of antisera with peptide (specificity analysis ELISA) [2, 6]: 0.069
Reactivity of antisera with peptide (specificity analysis ELISA) [2, 7]: 0.062
Epitope mapping, fine specificity analysis, serum of subject P101 [3]: 94
Epitope mapping, fine specificity analysis, serum of subject P102 [3]: 0
Epitope mapping, fine specificity analysis, serum of subject P103 [3]: 0
Epitope mapping, fine specificity analysis, serum of subject P104 [3]: 0
Epitope mapping, fine specificity analysis, serum of subject P105 [3]: 0
Epitope mapping, fine specificity analysis, serum of subject P106 [3]: 0
Epitope mapping, fine specificity analysis, serum of subject P107 [3]: 0
Epitope mapping, fine specificity analysis, serum of subject P108 [3]: 0
Epitope mapping, fine specificity analysis, serum of subject P109 [3]: 0
Epitope mapping, fine specificity analysis, serum of subject P201 [3]: 2
Epitope mapping, fine specificity analysis, serum of subject P202 [3]: 7
Epitope mapping, fine specificity analysis, serum of subject P203 [3]: 0
Epitope mapping, fine specificity analysis, serum of subject P204 [3]: 12
Epitope mapping, fine specificity analysis, serum of subject P205 [3]: 0
Epitope mapping, fine specificity analysis, serum of subject P206 [3]: 0
Epitope mapping, fine specificity analysis, serum of subject P207 [3]: 0
Epitope mapping, fine specificity analysis, serum of subject P208 [3]: 0
Epitope mapping, fine specificity analysis, serum of subject P209 [3]: 0
Epitope mapping, fine specificity analysis, serum of subject P210 [3]: 52
